Source: patent US12115248B2, “Devices and methods for delivering methane inhibiting compounds to animals” (Ruminant Biotech Corp Limited, priority 2022, dated 2024)
Several values for one entry are separate records, joined by “and”; a condition that tells them apart may be missing. Equal entries are not always repeated. Entries after “also recorded” stand apart in the source; their conditions may differ. Where two headings read alike, the source gives them in different places. Marks after values point to notes of the source that are not given here.

Tests used:
methane emissions [1] = assay: Animal study (Example 3): gas emissions in respiration chambers; type: in vivo, dairy beef heifers
Description: An animal study was conducted to determine methane emissions from an animal implanted with a bolus of the disclosure. The experiment was designed as an unbalanced, completely randomized design with three treatments and three repeated measurements over time in three periods 8 to 12 weeks apart.
Nineteen dairy beef heifers (312±14 kg live weight), including three spare animals, were selected from a mob of 50 based on behaviour traits and liveweight from a research farm in the Manawatu, New Zealand. They were assigned to one of three treatments: a bolus containing no bromoform (CONTROL; n=4); a bolus releasing bromoform at a rate of about 300-400 mg/day (LOW, n=6); or a bolus releasing about 450-580 mg/day (HIGH, n=6). SmaXtec boluses were administered at the same time to monitor rumen temperature as an animal health monitor and to complement the weekly blood samples.
The heifers were transported from research farm to a testing centre for diet adaptation and gas measurements using respiration chambers. The heifers were adapted to the environment of the cattle yards and the fresh cut pasture for 7 days before receiving their allocated treatment bolus. Gas measurements started 13 days after the boluses were administrated. Each heifer was in the respiration chambers for 48 hours during the period of gas measurements, which took two weeks for four measurement groups. At the end of the measurements in respiration chambers, the animals were transported back to research farm.
Fermentation gases methane (CH4), carbon dioxide (CO2) and hydrogen (H2) were quantified in four open-circuit respiration chambers at the New Zealand Ruminant Methane Measurement Centre (AgResearch, Palmerston North, New Zealand). Each chamber is 15.4 m^3 (3.5 m long×2 m wide×2.2 m high) with an air flow rate of around 1.0 m^3/min, which was continuously monitored by measuring differential pressure using a Venturi flowmeter. Temperature inside respiration chambers was approximately 20° C. and the relative humidity was on average approximately 79%. All gases were measured at ˜2.8-min intervals using a 4900C Continuous Emission analyser (Servomex Group Ltd, East Sussex, UK) and daily production of each gas was calculated from the difference between concentration flowing in- and out of the chamber (Pinares-Patiño et al., 2012). Respiration chambers were opened twice daily (˜20 min each time) for cleaning, feeding, faecal sampling and feed refusal collection. No measurements were performed during the period when chambers were opened, and missing data were interpolated by taking the average of the last 12 values ([…]) before the doors were opened.
Data from the first period of gas measurements was analysed using the ‘predictmeans’ and ‘Ime4’ packages in the statistical software R 4.0.3 (R Core Team, 2020). Data for dry matter intake and gas emissions for each heifer were averaged across the two measurement days. Heifer served as the experimental unit. The mixed model included treatment as fixed effect and respiration chamber nested in measurement group as random effect.

[2] = in vivo; cited from earlier work
methane emissions [3] = assay: Preliminary field trial (Example 14): gas emission measurements in respiration chambers; type: in vivo, heifers
Description: The following preliminary field trial is an example of the methane inhibiting capabilities of the bolus invention in a live animal trial using recognised methane analysis techniques. The bolus used in the trial is outlined in Table 14 and the trial time schedule is outlined in Table 16.
Five different total bromoform doses across two different diets were tested, giving a total of ten treatments (Table 15). […] Within each dose group, half of the animals were fed baleage (baled cut and covered pasture), and the other half were adapted to a diet of fresh cut ryegrass (New Zealand fresh pasture). Boluses were washed prior to administration to remove any bromoform that may have accumulated on the outside of the bolus. The additional boluses were administered on day 69 per os. (oesophagus). The second measurement session began 10 days after said bolus administration, with animals entering the respiration chambers for a 48-hour period in groups of four.
(§1) Liveweights of the animals were recorded prior to the first bolus administration and following each measurement period. Gas production of methane, hydrogen, and carbon dioxide was assessed every 3 min over a 48-hour period in respiration chambers using a 4900C Continuous Emission Analyser. […] Rumen fluid contents were sampled prior to bolus administration and following measurement periods in the respiration chambers. Rumen samples were assessed for pH and short-chain fatty acids (SCFAs) content, and were stored for bromoform residue analysis later on. Blood samples were collected 16 days prior to bolus administration, and on days 34 and 94 following the measurement periods. Blood samples were assessed biochemical constitution and for liver enzymes.
Emissions of methane (CH4), hydrogen (H2) and carbon dioxide (CO2) were assessed in respiration chambers over 48 hour measurements and converted to a per-day-total. […] The data are combined for both feeds during measurement session 2 (cf. schedule table 16). P-values were calculated by single-factor ANOVA and differences were deemed particularly significant for p-value <0.05.

[4] = rats; cited from earlier work
[5] = after 48 hour with holding period; cited from earlier work
[6] = Preliminary field trial (Example 14): dry matter intake, liveweight, blood samples; type: in vivo, heifers
Description: as §1
The data are combined for both feed types during measurement session 2. […]

[7] = mice; cited from earlier work
[8] = 260 mg/d (HIGH + 156), period 2

In the case of BrC(Br)Br [bromoform], the H2 (methane emissions [1]; HIGH, 450 mg/d) is reported as 20.08^a g/d, the “CH4 production (g/day) decrease compared with CONTROL” value (methane emissions [1]; HIGH, about 450-580 mg/day) is reported as “more than 99%” and the “CH4 yield (g/kg dry matter intake) decrease compared with CONTROL” value (methane emissions [1]; HIGH, about 450-580 mg/day) is reported as “more than 99%”. For the same molecule, the H2 (methane emissions [1]; LOW, 300 mg/d) was 20.60^a g/d, the “CH4 production (g/day) decrease compared with CONTROL” value (methane emissions [1]; LOW, about 300-400 mg/day) was “more than 99%” and the “CH4 yield (g/kg dry matter intake) decrease compared with CONTROL” value (methane emissions [1]; LOW, about 300-400 mg/day) was “more than 99%”. For the same molecule, the level in milk [2] was “no significant increase”, the CO2 (methane emissions [3]; 156 mg/d (CON + 156), period 2) was 5666 ± 327 g/day and the H2 (methane emissions [3]; 156 mg/d (CON + 156), period 2) was 7.9 ± 3.5 g/day. The CH4 (methane emissions [3]; 156 mg/d (CON + 156), period 2, all animals, average ± standard error) was 48.7 ± 29.5 g/day, the “methane emissions of individual animals” value (methane emissions [3]; 156 mg/day dose group (CON+156)) was “about 0.2 g/d and ~0 g/d and 76 g/d” and the “methane emissions as % of the average of the untreated control group” value (methane emissions [3]; 156 mg/day, one animal with partial knockdown) was “approximately 50%”. For the same molecule, the CH4 (methane emissions [3]; 182 mg/d (LOW + 156), period 2) was 18.6 ± 18.2 g/day, the CO2 (methane emissions [3]; 182 mg/d (LOW + 156), period 2) was 5589 ± 295 g/day and the H2 (methane emissions [3]; 182 mg/d (LOW + 156), period 2) was 13.7 ± 4.7 g/day. The “methane inhibition, animals responding” value (methane emissions [3]; 182 mg/d (LOW+156)) was “full methane inhibition was observed for three of the four treated animals; also recorded: Partial inhibition was observed for 1 out of 4 animals”, the “methane emission compared to control animals” value (methane emissions [3]; 182 mg/d, fourth animal) was “approximately 50%” and the CH4 (methane emissions [3]; 208 mg/d (MED + 156), period 2) was -0.3 ± 0.5 g/day. For the same molecule, the CO2 (methane emissions [3]; 208 mg/d (MED + 156), period 2) was 5011 ± 377 g/day, the H2 (methane emissions [3]; 208 mg/d (MED + 156), period 2) was 17.2 ± 3.5 g/day and the “methane inhibition” value (methane emissions [3]; 208 mg/d or more) was “full methane inhibition”. The CH4 (methane emissions [3]; [8]) was -0.2 ± 0.3 g/day, the CO2 (methane emissions [3]; [8]) was 5159 ± 308 g/day and the H2 (methane emissions [3]; [8]) was 17 ± 3.4 g/day. It also gave a CH4 (methane emissions [3]; Baleage, 156 mg/d) of 59.1 g/day, a CO2 (methane emissions [3]; Baleage, 156 mg/d) of 5251 g/day and an H2 (methane emissions [3]; Baleage, 156 mg/d) of 7.4 g/day. For the same molecule, the CH4 (methane emissions [3]; Baleage, 182 mg/d) was 0.9 g/day, the CO2 (methane emissions [3]; Baleage, 182 mg/d) was 5202 g/day and the H2 (methane emissions [3]; Baleage, 182 mg/d) was 13.3 g/day. It also gave a CH4 (methane emissions [3]; Baleage, 208 mg/d) of -1.0 g/day, a CO2 (methane emissions [3]; Baleage, 208 mg/d) of 4919 g/day and an H2 (methane emissions [3]; Baleage, 208 mg/d) of 19.9 g/day. For the same molecule, the CH4 (methane emissions [3]; Baleage, 260 mg/d) was 0.3 g/day, the CO2 (methane emissions [3]; Baleage, 260 mg/d) was 4645 g/day and the H2 (methane emissions [3]; Baleage, 260 mg/d) was 12.7 g/day. For the same molecule, the CH4 (methane emissions [3]; Pasture, 156 mg/d) was 38.2 g/day, the CO2 (methane emissions [3]; Pasture, 156 mg/d) was 6081 g/day and the H2 (methane emissions [3]; Pasture, 156 mg/d) was 8.4 g/day. The CH4 (methane emissions [3]; Pasture, 182 mg/d) was 36.2 g/day, the CO2 (methane emissions [3]; Pasture, 182 mg/d) was 5977 g/day and the H2 (methane emissions [3]; Pasture, 182 mg/d) was 14.1 g/day. The CH4 (methane emissions [3]; Pasture, 208 mg/d) was 0.3 g/day, the CO2 (methane emissions [3]; Pasture, 208 mg/d) was 5104 g/day and the H2 (methane emissions [3]; Pasture, 208 mg/d) was 14.4 g/day. The CH4 (methane emissions [3]; Pasture, 260 mg/d) was -0.7 g/day, the CO2 (methane emissions [3]; Pasture, 260 mg/d) was 5673 g/day and the H2 (methane emissions [3]; Pasture, 260 mg/d) was 21.3 g/day. For the same molecule, the “effective minimal daily dose” value (methane emissions [3]; cattle, about 378 kg) was 0.28 to 0.4 mg/kg/day, the “minimum dose for an effective mitigation of methanogenesis” value (methane emissions [3]; cattle, about 378 kg) was 104 to 156 mg/day and the “methane inhibition” value (methane emissions [3]; dose range of 0-104 mg/day, chamber session 1 (data not shown)) was “no substantial methane inhibition”. For the same molecule, the “methane inhibition, animals responding” value (methane emissions [3]; doses equal to and greater than 156 mg/d) was 15 out of 16 animals, the half-life in animals [4] was 0.8 h and the “residues in meat and tissue from slaughtered steers” value [5] was “no residues”. The Average animal liveweight ([6]; 156 mg/d (CON + 156)) was 380 kg, the Average animal liveweight ([6]; 182 mg/d (LOW+156)) was 387 kg and the Average animal liveweight ([6]; 208 mg/d (MED + 156)) was 376 kg. The Average animal liveweight ([6]; 260 mg/d (HIGH + 156)) was 369 kg, the “Dry matter intake” value ([6]; all tested doses) was “not significantly different; also recorded: not significantly altered” and the “Animal liveweight, treated versus untreated control” value ([6]; in vivo) was “about the same”. For the same molecule, the “blood data, treated versus untreated control” value ([6]; in vivo) was “No differences”, the “Average dry matter intake” value ([6]; treatment group CON + 156) was 5.54 kg/day and the “Average dry matter intake” value ([6]; treatment group HIGH) was 5.54 kg/day. The “Average dry matter intake” value ([6]; treatment group HIGH + 260) was 4.47 kg/day, the “Average dry matter intake” value ([6]; treatment group LOW + 182) was 5.15 kg/day and the “Average dry matter intake” value ([6]; treatment group LOW, both feeds, session 2) was 5.11 kg/day. For the same molecule, the “Average dry matter intake” value ([6]; treatment group MED) was 5.72 kg/day, the “Average dry matter intake” value ([6]; treatment group MED + 208) was 3.86 kg/day and the half-life in animals [7] was 1.2 h.
